Results published in patent publication US8715621B2, “Radical polarizing agents for dynamic nuclear polarization” (Massachusetts Institute of Technology, priority 2012, dated 2014).

Key:
[1] = Stability in air; format: physicochemical
[2] = Solubility in water / aqueous media; format: physicochemical
[3] = EPR spectrum: line width, aggregation, dimerization; settings: solution, glass or solid

air stability [1]: air stable
solubility in water / aqueous media [2]: lack of solubility in aqueous media
aggregate formation or radical dimerization [3]: no dimerization in solid or in solution
Substance: 1,3-bisdiphenylene-2-phenylallyl [BDPA]
